# Test system: Mycobacterium tuberculosis
# Experiment: Antitubercular activity against Mycobacterium tuberculosis H37Rv ATCC 27294 after 5 days by microplate alamar blue assay
# Assay type: functional
# Settings: H37Rv ATCC 27294, 120 h
row,SMILES,MIC
1,O=C1NC(=O)/C(=C/c2c(-c3ccccc3)nc3sc(C(F)(F)F)nn23)S1,25 µg/mL
2,O=C1NC(=O)/C(=C/c2c(-c3ccc(Cl)cc3)nc3sc(C(F)(F)F)nn23)S1,3.12 µg/mL
3,O=C1NC(=O)/C(=C/c2c(-c3ccc(Br)cc3)nc3sc(C(F)(F)F)nn23)S1,25 µg/mL
4,O=C1NC(=S)S/C1=C\c1c(-c2ccc(Br)cc2)nc2sc(C(F)(F)F)nn12,3.12 µg/mL
5,O=C1NC(=O)/C(=C/c2c(-c3ccc(F)cc3)nc3sc(C(F)(F)F)nn23)S1,25 µg/mL
6,Cc1ccc(-c2nc3sc(C(F)(F)F)nn3c2/C=C2\SC(=O)NC2=O)cc1,25 µg/mL
7,COc1ccc(-c2nc3sc(C(F)(F)F)nn3c2/C=C2\SC(=O)NC2=O)cc1,25 µg/mL
8,O=C1NC(=O)/C(=C/c2c(-c3ccc([N+](=O)[O-])cc3)nc3sc(C(F)(F)F)nn23)S1,50 µg/mL
9,O=C1NC(=S)S/C1=C\c1c(-c2ccccc2)nc2sc(C(F)(F)F)nn12,6.25 µg/mL
10,O=C1NC(=S)S/C1=C\c1c(-c2ccc(Cl)cc2)nc2sc(C(F)(F)F)nn12,50 µg/mL
11,O=C1NC(=S)S/C1=C\c1c(-c2ccc(F)cc2)nc2sc(C(F)(F)F)nn12,6.25 µg/mL
12,Cc1ccc(-c2nc3sc(C(F)(F)F)nn3c2/C=C2\SC(=S)NC2=O)cc1,6.25 µg/mL
13,COc1ccc(-c2nc3sc(C(F)(F)F)nn3c2/C=C2\SC(=S)NC2=O)cc1,25 µg/mL
14,O=C1NC(=S)S/C1=C\c1c(-c2ccc([N+](=O)[O-])cc2)nc2sc(C(F)(F)F)nn12,50 µg/mL
15,O=C(O)CN1C(=O)/C(=C/c2c(-c3ccccc3)nc3sc(C(F)(F)F)nn23)SC1=S,6.25 µg/mL
16,O=C(O)CN1C(=O)/C(=C/c2c(-c3ccc(Cl)cc3)nc3sc(C(F)(F)F)nn23)SC1=S,3.12 µg/mL
17,O=C(O)CN1C(=O)/C(=C/c2c(-c3ccc(Br)cc3)nc3sc(C(F)(F)F)nn23)SC1=S,3.12 µg/mL
18,O=C(O)CN1C(=O)/C(=C/c2c(-c3ccc(F)cc3)nc3sc(C(F)(F)F)nn23)SC1=S,3.12 µg/mL
19,O=C(O)CN1C(=O)/C(=C/c2c(-c3ccc([N+](=O)[O-])cc3)nc3sc(C(F)(F)F)nn23)SC1=S,25 µg/mL
20,Cc1ccc(-c2nc3sc(C(F)(F)F)nn3c2/C=C2\SC(=S)N(CC(=O)O)C2=O)cc1,3.12 µg/mL
21,COc1ccc(-c2nc3sc(C(F)(F)F)nn3c2/C=C2\SC(=S)N(CC(=O)O)C2=O)cc1,1.56 µg/mL
22,NNC(=O)c1ccncc1 [ISONIAZID],1.56 µg/mL
23,CO[C@H]1/C=C/O[C@@]2(C)Oc3c(C)c(O)c4c(O)c(c(/C=N/N5CCN(C)CC5)c(O)c4c3C2=O)NC(=O)/C(C)=C\C=C\[C@H](C)[C@H](O)[C@@H](C)[C@@H](O)[C@@H](C)[C@H](OC(C)=O)[C@@H]1C [RIFAMPIN],0.78 µg/mL

# Reference: ChEMBL document CHEMBL1955755, “Novel imidazo[2,1-b][1,3,4]thiadiazole carrying rhodanine-3-acetic acid as potential antitubercular agents” (2012)
